Results: ChEMBL document CHEMBL1201862, “PubChem BioAssay data set” (2004)
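Results reflect a 48-hour exposure of cells in 96-well plates to compound at five concentrations. GI50 marks 50% less growth.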 The source made the active and inactive calls. No stated cut-off is given here; in the data, active = GI50 up to about 1.1 µM and inactive = higher.

Key:
Test in all cases: inhibition of tumour cell growth, NCI panel, 48 h
HL-60 = test system: HL-60
RPMI-8226 = test system: RPMI-8226
SF-268 = test system: SF-268
SR = test system: SR
A498 = test system: A498
LOX IMVI = test system: LOX IMVI
IGROV-1 = test system: IGROV-1
OVCAR-8 = test system: OVCAR-8
TK-10 = test system: TK-10
SK-MEL-28 = test system: SK-MEL-28
CCRF-CEM = test system: CCRF-CEM
ACHN = test system: ACHN
786-0 = test system: 786-0
SNB-75 = test system: SNB-75
SN12C = test system: SN12C
HOP-18 = test system: HOP-18
DMS-273 = test system: DMS-273
Malme-3M = test system: Malme-3M
OVCAR-3 = test system: OVCAR-3

Measured: GI50

C=CC(OCC)(OCC)OCC
inactive: HL-60 > 100 µM | RPMI-8226 61.1 µM | SF-268 > 100 µM | SR 29.9 µM | A498 > 100 µM | LOX IMVI 66.2 µM | IGROV-1 > 100 µM | OVCAR-8 > 100 µM | TK-10 > 100 µM | SK-MEL-28 > 100 µM | CCRF-CEM > 100 µM | ACHN > 100 µM | 786-0 23.5 µM | SNB-75 > 100 µM | SN12C > 100 µM | HOP-18 > 100 µM | DMS-273 18.2 µM | Malme-3M > 100 µM | OVCAR-3 > 100 µM

NC(=O)Nc1cc(O)ccc1/N=N/c1ccc(S(=O)(=O)Nc2ccccn2)cc1
inactive: HL-60 > 100 µM | RPMI-8226 > 100 µM | SF-268 > 100 µM | A498 > 100 µM | LOX IMVI > 100 µM | IGROV-1 > 100 µM | OVCAR-8 > 100 µM | TK-10 > 100 µM | SK-MEL-28 > 100 µM | CCRF-CEM > 100 µM | ACHN > 100 µM | SNB-75 > 100 µM | SN12C > 100 µM | HOP-18 > 100 µM | DMS-273 > 100 µM | Malme-3M > 100 µM | OVCAR-3 > 100 µM
